The values below come from patent US10414759B2, “Phenylthiazoles and uses thereof” (Purdue Research Foundation, priority 2017, dated 2019).

Converted amounts (≈) assume the structure as drawn. “Also recorded” adds a separate entry of the source. Read-outs that look alike come from different tables or passages of the source. A value given as a limit tells only on which side of the number the result lay.

Data set [1] relates to MRSA (2658 RCMB). Briefly: MIC against MRSA (2658 RCMB), broth dilution. Format: cell-based, Staphylococcus aureus. The note with it: for MIC: Staphylococcus aureus. As for the experimental part: Bacteria were cultured in cation-adjusted Mueller Hinton broth in a 96-well plate. Compounds, using triplicate samples, were added to the plate and serially diluted. […] Plates were visually inspected and the MIC was categorized as the concentration at which no visible growth of bacteria was observed. The average of triplicate MIC determinations is reported.
A bacterial solution equivalent to 0.5 McFarland standard was prepared and diluted in cation-adjusted Mueller-Hinton broth (CAMHB) to achieve a bacterial concentration of about 5×10^5 CFU/mL and seeded in 96-well plates. Enterococcus faecium was diluted in brain heart infusion broth. Enterococcus faecalis, Streptococcus pneumonia and Listeria monocytogenes were diluted in tryptone soya broth (TSB).
On the technique in general: In broth dilution the organism is exposed to a series of concentrations in liquid medium.

Data set [2] in a line: PBS solubility screen (turbidometric). The format is physicochemical. As for the experimental part: The solutions were diluted 100-fold into PBS in a 96-well plate and mixed. The absorbance of the PBS-containing plate was measured prior to addition of the test agents to determine the background absorbance. After 2 h, the presence of precipitate was detected by turbidity (absorbance at 540 nm). […] The solubility limit is reported as the highest experimental concentration with no evidence of turbidity.

Data set [3] is described as follows: Metabolic stability in human liver microsomes. The format is in vitro ADME. To be noted: pH 7.4, human liver microsomes. As to the method:
The tested compounds were incubated in duplicate with human liver microsomes at 37° C. The reaction contained microsomal protein in 100 mM potassium phosphate, 2 mM NADPH, 3 mM MgCl2, pH 7.4. A control was run for each test agent omitting NADPH to detect NADPH-free degradation. At 0, 10, 20, 40, and 60 minutes, an aliquot was removed from each experimental and control reaction and mixed with an equal volume of ice-cold Stop Solution (methanol containing haloperidol, diclofenac, or other internal standard). Stopped reactions are incubated at least ten minutes at −20° C., and an additional volume of water was added. The samples were centrifuged to remove precipitated protein, and the supernatants were analyzed by LC/MS/MS to quantitate the remaining parent. Data are converted to % remaining by dividing by the time zero concentration value. Data are fit to a first-order decay model to determine half-life. Intrinsic clearance is calculated from the half-life and the protein concentrations: CLint=ln(2)/(T1/2 [microsomal protein]).
A general note: Liver microsomes are a subcellular fraction often used to study metabolism.

The mark [4] stands for this setting: Table 1, MRSA (2658 RCMB), read-out: MIC ± SD.
Setting [5] is: aqueous buffer, kinetic from dmso stock.
Setting [6] is: aqueous buffer, kinetic from dmso stock, phosphate buffered saline (PBS), highest concentration with no precipitate (OD540), read-out: Solubility limit.
Setting [7] is: Table 7, initial screening, MRSA (2658 RCMB), read-out: minimum inhibitory concentration (MIC).

Take `CCCCc1ccc(-c2nc(C)c(-c3ccnc(NC#N)n3)s2)cc1` [Compound 10, N-{4-[2-(4-Butylphenyl)-4-methylthiazol-5-yl]pyrimidin-2-yl}cyanamide]: the melting point (in general, the temperature, or range, at which the solid turns liquid) was determined as 118 °C. Besides, the MIC in data set [1] (setting [4]) is 18.7 ± 2.3 µg/mL (≈ 53.5 µM). In data set [1] (Table 1), the “antibacterial (anti-MRSA) activity, in words” value (“antibacterial” below) was “dramatically decreased the antibacterial activity”.

As to `Cc1nc(-c2ccc(C3=CCCCC3)cc2)sc1-c1ccnc(N)n1` [Compound 29, 4-{2-[4-(Cyclohex-1-en-1-yl)phenyl]-4-methylthiazol-5-yl}pyrimidin-2-amine], the melting point was 140.4 °C. Further, in data set [1] (setting [4]), the MIC is 0.78 µg/mL (≈ 2.24 µM). Besides, in data set [2] (setting [5]), the concentration in solution (solubility at 2 h) was 37 µM (≈ 12.9 µg/mL).

The molecule `Cc1nc(-c2ccc(-c3ccoc3)cc2)sc1-c1ccnc(N)n1` [Compound 24, 4-{2-[4-(Furan-3-yl)phenyl]-4-methylthiazol-5-yl}pyrimidin-2-amine] showed a melting point of 161.2 °C. The MIC in data set [1] (MRSA, read-out: MIC ± SD) turned out to be 7.8 ± 0.5 µg/mL (≈ 23.3 µM). The solubility – broadly, the dissolved amount per volume that the medium holds – at 2 h in data set [2] (setting [6]) worked out at 13 µM (≈ 4.35 µg/mL).

As for `COC(=O)[C@H]1[C@H]2C[C@@H]3c4[nH]c5cc(OC)ccc5c4CCN3C[C@H]2C[C@@H](OC(=O)c2cc(OC)c(OC)c(OC)c2)[C@@H]1OC` [Reserpine, reserpine, reference compound], the solubility at 2 h in data set [2] (phosphate buffered saline (PBS), highest concentration with no precipitate (OD540), read-out: Solubility limit) stood at 31.3 µM (≈ 19.1 µg/mL).

The molecule `CCCCc1ccc(-c2nc(C)c(-c3ccnc(NC(=N)N(C)C)n3)s2)cc1` [Compound 11, 3-{4-[2-(4-Butylphenyl)-4-methylthiazol-5-yl]pyrimidin-2-yl}-1,1-dimethylguanidine] came in with a melting point of 153.7 °C. Further, the MIC in data set [1] (setting [4]) amounted to 0.78 µg/mL (≈ 1.98 µM). Also, the “antibacterial” value in data set [1] (Table 1) is recorded as “more potent than vancomycin; also recorded: MIC value below one microgram/mL”. Moreover, the microsomal CLint in data set [3] (NADPH omitted, read-out: NADPH-free Clint) was determined as 0.5 µL/min/mg. In data set [3] (NADPH omitted, read-out: NADPH-free t1/2), the half-life was above 1 h. Besides, the half-life in data set [3] (with NADPH, read-out: NADPH-dependent t1/2) was found to be 4.05 h. Also, the concentration in solution in data set [2] (setting [5]) (solubility at 2 h) was 53 µM (≈ 20.9 µg/mL).

Molecule `Cc1nc(-c2ccc(C3=CCCCCCC3)cc2)sc1-c1ccnc(N)n1` [Compound 31, 4-{2-[4-(Cyclooct-1-en-1-yl)phenyl]-4-methylthiazol-5-yl}pyrimidin-2-amine] displayed a melting point of 188 °C. Also, the MIC in data set [1] (setting [4]) is 5.6 ± 0.1 µg/mL (≈ 14.9 µM).

Regarding `Cc1nc(-c2ccc(C3=CCCC3)cc2)sc1-c1ccnc(N)n1` [Compound 27, 4-{2-[4-(Cyclopent-1-en-1-yl)phenyl]-4-methylthiazol-5-yl}pyrimidin-2-amine], the melting point came out at 160.6 °C. In addition, in data set [1] (setting [4]), the MIC came out at 3.12 µg/mL (≈ 9.33 µM). In data set [2] (setting [5]), this molecule had a solubility at 2 h of 35 µM (≈ 11.7 µg/mL).

For the molecule `CCCCc1ccc(-c2nc(C)c(C(=O)/C=C/N(C)C)s2)cc1` [Compound 4, (E)-1-[2-(4-Butylphenyl)-4-methylthiazol-5-yl]-3-(dimethyl-amino)prop-2-en-1-one], the melting point was found to be 105.4 °C. In addition, the MIC in data set [1] (setting [4]) is above 25 µg/mL.

Molecule `Cc1nc(-c2ccc(C3=CCC(C)C3)cc2)sc1-c1ccnc(N)n1` (stereo not shown) [Compound 28, 4-{4-Methyl-2-[4-(4-methylcyclopent-1-en-1-yl)phenyl]thiazol-5-yl}pyrimidin-2-amine] displayed a melting point of 141 °C. For the same molecule, in data set [1] (setting [4]), the MIC amounted to 3.8 ± 0.4 µg/mL (≈ 10.9 µM).

`Cc1nc(-c2ccc(C=C3CCCC3)cc2)sc1-c1ccnc(N)n1` [Compound 32, 4-{2-[4-(Cyclopentylidenemethyl)phenyl]-4-methylthiazol-5-yl}pyrimidin-2-amine] gave a melting point of 143 °C. In addition, the MIC in data set [1] (setting [4]) is 1.17 ± 0.19 µg/mL (≈ 3.36 µM).

In the case of `CCCCc1ccc(-c2nc(C)c(-c3ccnc(N4CCCC4)n3)s2)cc1` [Compound 15, 2-(4-Butylphenyl)-4-methyl-5-(2-(pyrrolidin-1-yl)pyrimidin-4-yl)thiazole], the melting point was found to be 153.7 °C. Also, in data set [1] (setting [4]), the MIC was above 25 µg/mL. Also, in data set [1] (Table 1), the “antibacterial” value is given as “lacks any antibacterial activity”.

As for `CCCCc1ccc(-c2nc(C)c(-c3ccnc(NC(N)=S)n3)s2)cc1` [Compound 12, 1-{4-[2-(4-Butylphenyl)-4-methylthiazol-5-yl]pyrimidin-2-yl}thiourea], the melting point was 212 °C (dec.). For the same molecule, the MIC in data set [1] (MRSA, read-out: MIC ± SD) was above 25 µg/mL. Further, the “antibacterial” value in data set [1] (Table 1) is reported as “complete abolishment of the anti-MRSA activity”.

Molecule `Cc1nc(-c2ccc(/C=C/C3CCCC3)cc2)sc1-c1ccnc(N)n1` [Compound 34, (E)-4-{2-[4-(2-Cyclopentylvinyl)phenyl]-4-methylthiazol-5-yl}pyrimidin-2-amine] had a melting point of 180.7 °C. In addition, the MIC in data set [1] (setting [4]) amounted to 3.12 µg/mL (≈ 8.61 µM).

In the case of `Cc1nc(-c2ccc(C3=CCCCCC3)cc2)sc1-c1ccnc(N)n1` [Compound 30, 4-{2-[4-(Cyclohept-1-en-1-yl)phenyl]-4-methylthiazol-5-yl}pyrimidin-2-amine], the melting point worked out at 164 °C. The MIC in data set [1] (setting [4]) came out at 3.12 µg/mL (≈ 8.61 µM).

As to `Cc1nc(-c2ccc(-c3ccsc3)cc2)sc1-c1ccnc(N)n1` [Compound 26, 4-{4-Methyl-2-[4-(thiophen-3-yl)phenyl]thiazol-5-yl}pyrimidin-2-amine], the melting point was 225 °C (dec.). In addition, the MIC in data set [1] (setting [4]) was 6.25 µg/mL (≈ 17.8 µM). In data set [2] (setting [5]), this molecule registered a solubility at 2 h of 8.5 µM (≈ 2.98 µg/mL).

Take `Cc1nc(-c2ccc(C=C3CCCCC3)cc2)sc1-c1ccnc(N)n1` [Compound 33, 4-{2-[4-(Cyclohexylidenemethyl)phenyl]-4-methylthiazol-5-yl}pyrimidin-2-amine]: the melting point came out at 165 °C. The MIC in data set [1] (MRSA, read-out: MIC ± SD) turned out to be 1.56 µg/mL (≈ 4.3 µM).

For `CCCCc1ccc(-c2nc(C)c(-c3ccnc(-n4cccn4)n3)s2)cc1` [Compound 14, 2-(4-Butylphenyl)-5-[2-(1H-pyrazol-1-yl)pyrimidin-4-yl]-4-methylthiazole], the melting point is 163.7 °C. Also, the MIC in data set [1] (setting [4]) is above 25 µg/mL. Further, the “antibacterial” value in data set [1] (Table 1) is “exhibited no antibacterial activity”.

For `CC(=O)CC(c1ccccc1)c1c(O)c2ccccc2oc1=O` (stereo not shown) [Warfarin, warfarin, reference compound], the microsomal CLint in data set [3] (with NADPH, read-out: NADPH-dependent CLint) amounted to 0.3 µL/min/mg.

Regarding `Cc1nc(-c2ccc(-c3ccco3)cc2)sc1-c1ccnc(N)n1` [Compound 25, 4-{2-[4-(Furan-2-yl)phenyl]-4-methylthiazol-5-yl}pyrimidin-2-amine], the melting point stood at 209.3 °C. For the same molecule, the MIC in data set [1] (MRSA, read-out: MIC ± SD) amounted to 8.7 ± 0.3 µg/mL (≈ 26 µM). Further, in data set [2] (setting [6]), the solubility at 2 h came out at 14 µM (≈ 4.68 µg/mL).

Turning to `Cc1nc(-c2ccc(/C=C/C3CCCCC3)cc2)sc1-c1ccnc(N)n1` [Compound 35, (E)-4-{2-[4-(2-Cyclohexylvinyl)phenyl]-4-methylthiazol-5-yl}pyrimidin-2-amine], the melting point is 189 °C. The MIC in data set [1] (setting [4]) was 3.12 µg/mL (≈ 8.29 µM).

Turning to `CCCCc1ccc(-c2nc(C)c(-c3ccnc(N=C(N(C)C)N(C)C)n3)s2)cc1` [Compound 19, 2-{4-[42-(4-Butylphenyl)-4-methylthiazol-5-yl]pyrimidin-2-yl}-1,1,3,3-tetramethyl guanidine], in data set [1] (Table 1), the “antibacterial” value is listed as “revealed no antibacterial efficacy”. Moreover, in data set [1] (Table 1, MRSA (2658 RCMB)), the “MIC ± SD” value is above 25 µg/mL.

Turning to `Cc1nc(-c2ccc(C(C)(C)C)cc2)sc1-c1ccnc(N2CCOCC2)n1` [Compound 52, 4-(4-(2-(4-(tert-Butyl)phenyl)-4-methylthiazol-5-yl)pyrimidin-2-yl) morpholine], the MIC in data set [1] (setting [7]) turned out to be 25 µg/mL (≈ 63.4 µM).

As for `CCCCc1ccc(-c2nc(C)c(-c3ccnc(NC(=N)N)n3)s2)cc1` [Compound 18, 2-(4-Butylphenyl)-5-(2-guanidinylpyrimidin-4-yl)-4-methylthiazole], in data set [1] (setting [4]), the MIC was determined as 1.56 µg/mL (≈ 4.26 µM). Besides, the “MIC ± SD” value in data set [1] (Table 1, MRSA (2658 RCMB)) turned out to be 1.56 ± 0.10 µg/mL (≈ 4.26 µM).

`Cc1nc(-c2ccc(C(C)(C)C)cc2)sc1-c1ccnc(N(C)C)n1` [Compound 50, 4-(2-(4-(tert-Butyl)phenyl)-4-methylthiazol-5-yl)-N,N-dimethylpyrimidin-2-amine]: the MIC in data set [1] (setting [7]) was above 50 µg/mL.

As for `CCCCc1ccc(-c2nc(C)c(-c3ccnc(NC)n3)s2)cc1` [Compound 9, 4-[2-(4-Butylphenyl)-4-methylthiazol-5-yl]-N-methylpyrimidin-2-amine], the melting point was 227 °C (dec.). In addition, the MIC in data set [1] (setting [4]) was above 25 µg/mL. For the same molecule, the “antibacterial” value in data set [1] (Table 1) is on record as “dramatically decreased the antibacterial activity”.
